Laboratory results reported in article PMC10534486 (Pharmaceutics, 2023).
Like-named read-outs stand apart in the source and are kept apart here.

Key:
[1] = in vivo; conditions: Sprague-Dawley, rat, plasma, iv, 10 mg/kg; for clearance: CL (time-averaged total body clearance); for CL renal: CLR (time-averaged renal clearance); for MRT: MRT (mean residence time); for half-life: Terminal half-life; for Vd: Vss (apparent volume of distribution at steady state); for k el: k (elimination rate constant)
[2] = in vitro; type: in vitro ADME, rat
Method: […]. […] […].
The binding percentage (%) was calculated using the equation: Binding percentage %=CT−CF/CT×100 where CF represents the concentration of free drug measured in the ultrafiltrate and CT is the total drug concentration introduced into the ultrafiltration system before centrifugation.

[3] = for CLR estimated from the free fraction in plasma: intravenous
[4] = Pharmacokinetics after oral administration of 20 mg/kg to CON and PHL rats; type: in vivo, Sprague–Dawley rats; conditions: for AUC(0-inf) / Cmax / CL renal / half-life / k el / bioavailability: po, 20 mg/kg; for CL renal: read-out: CLR (time-averaged renal clearance); for half-life: read-out: Terminal half-life; for k el: read-out: k (elimination rate constant) (converted); for bioavailability: read-out: F (absolute oral bioavailability)
Method: The rats were randomly assigned to one of two experimental groups: a control (CON) and a P-407-induced hyperlipidemia (PHL) group. P-407 was dissolved in cold sterile 0.9% NaCl-injectable solution and stored in a refrigerator for at least 6 h to ensure complete dissolution. Rats in the PHL group received a single intraperitoneal injection of 1 g/kg P-407, whereas rats in the CON group received a single intraperitoneal injection of an equal volume of 0.9% NaCl. Hyperlipidemia was defined as a total cholesterol concentration higher than 220 mg/dL or a low-density lipoprotein (LDL) cholesterol concentration higher than 160 mg/dL [29, 30].
Rats were anesthetized with ketamine (100 mg/kg) prior to surgical procedures. […] Prior to oral investigation, the rats were fasted overnight and only the carotid artery was cannulated for blood collection. The rats were allowed to recover for 3–4 h after surgical procedures prior to the performance of subsequent experiments.
. Blood samples (0.12 mL) were obtained at 0 (prior to drug administration), 1, 5, 15, 30, 45, 60, 90, 120, 180, and 240 min through the carotid artery. […]. Blood samples (0.12 mL) were collected through the carotid artery at 0 (prior to drug administration), 5, 15, 30, 45, 60, 90, 120, 180, 240, 360, and 480 min. All blood samples were centrifuged for 1 min at 8000× g and plasma (50 μL) samples were collected. After the blood samples were obtained, 0.3 mL of heparinized 0.9% NaCl solution (20 IU/mL) was immediately injected into the carotid artery to prevent blood clotting.
At 24 h, the rats were sacrificed and the abdomen of each was opened. The entire gastrointestinal tract of each rat was excised, cut into small pieces, and immersed in a beaker containing 50 mL of methanol. After evenly mixing the contents in the beaker, a 50 μL aliquot of each supernatant was withdrawn. The volumes of urine samples collected for 24 h after drug administration were measured and two 100 μL aliquots of each were collected.
The following pharmacokinetic parameters were determined by non-compartmental analysis (WinNonlin, Pharsight Co., Mountain View, CA, USA) using standard methods: terminal half-life, time-averaged total body (CL), renal (CLR), and nonrenal (CLNR) clearances, apparent volume of distribution at steady state (Vss), area under the plasma concentration–time curve from zero to infinity (AUC0–∞), and elimination rate constant (k). AUC0–∞ was calculated using the trapezoidal rule extrapolation method, whereas the maximum plasma concentration (Cmax) and time required to reach Cmax (Tmax) were determined directly from the plasma concentration–time curves. (R3-3) The absorption rate constants (ka) for oral administration were also estimated under the assumption of one-compartment model and first-order elimination.

[5] = tested on: P-gp; set-up: method as in PMID 24704892; conditions: cited from earlier work
[6] = Vmax, Km and CLint for disappearance of tofacitinib in hepatic microsomes
[7] = cited from earlier work
[8] = Vmax, Km and CLint for disappearance of tofacitinib in intestinal microsomes
[9] = Distribution of tofacitinib in tissues 30 min after intravenous administration; type: in vivo; conditions: Sprague-Dawley, rat; all tissues of CON and PHL rats, 30 min after intravenous 10 mg/kg; read-out: Tissue-to-plasma (T/P) ratios
Method: . Tissue samples, including fat, brain, kidney, heart, liver, large intestine, mesentery, lung, small intestine, muscle, stomach, and spleen, were removed from each rat, rinsed in phosphate-buffered saline (PBS, pH 7.4), and blotted dry with paper towels to remove any remaining blood. Approximately 1 g of each tissue was added to 4 volumes of homogenizing buffer, followed by homogenization (IKA Labortechnik, Staufen, Germany) and centrifugation at 8000× g for 10 min.

[10] = Sprague-Dawley, rat, plasma, CON rats (n = 6)
[11] = Sprague-Dawley, rat, plasma, PHL rats (n = 7)
[12] = oral 20 mg/kg, CON rats (n = 6)
[13] = oral 20 mg/kg, PHL rats (n = 7)

AUC(0-inf) ([1]; AUC (AUC0–∞), CON rats (n = 7)): 4470 ng·h/mL
clearance ([1]; CON rats (n = 7)): 37.9 ± 4.85 mL/min/kg
clearance ([1]; PHL rats (n = 6)): 21.6 ± 1.13 mL/min/kg
CL renal ([1]; CON rats (n = 7)): 3.11 ± 1.58 mL/min/kg
CL renal ([1]; PHL rats (n = 6)): 2.47 ± 1.1 mL/min/kg
MRT ([1]; CON rats (n = 7)): 22.6 min
MRT ([1]; PHL rats (n = 6)): 22.7 min
half-life ([1]; CON rats (n = 7)): 29.6 ± 4.55 min
half-life ([1]; PHL rats (n = 6)): 34.5 ± 2.29 min
Vd ([1]; CON rats (n = 7)): 0.847 ± 0.191 L/kg
Vd ([1]; PHL rats (n = 6)): 0.49 ± 0.136 L/kg
k el ([1]; CON rats (n = 7)): 0.000398 s⁻¹
k el ([1]; PHL rats (n = 6)): 0.000337 s⁻¹
recovery at 30 min, 5 µg/mL ([2]; pH 7.4): 100 ± 2.84%
Free (unbound to plasma proteins) fraction in plasma ([2]; rat, plasma, 30 min, 5 µg/mL): 40.8%
fraction unbound at 30 min, 5 µg/mL ([2]; rat, plasma, Free (unbound to plasma proteins) fraction in plasma): 0.667
fraction unbound at 30 min, 5 µg/mL ([2]; rat, plasma, Plasma protein binding): 0.408
AUC0–∞ higher in PHL than in CON rats ([3]; intravenous 10 mg/kg): 73.5%
CL slower in PHL than in CON rats ([3]; intravenous 10 mg/kg): 43.0%
Ae0–24 h (drug excreted unchanged in urine for 24 h) ([3]; intravenous 10 mg/kg, CON rats (n = 7)): 4.06 ± 1.89 % of dose
Ae0–24 h (drug excreted unchanged in urine for 24 h) ([3]; intravenous 10 mg/kg, PHL rats (n = 6)): 5.76 ± 2.53 % of dose
CLR estimated from the free fraction in plasma ([3]; CON rats): 4.66 mL/min/kg
CLR estimated from the free fraction in plasma ([3]; PHL rats): 6.05 mL/min/kg
AUC(0-inf) [4, 10]: 4800 ng·h/mL
Cmax [4, 10]: 2960 ± 643 ng/mL
CL renal [4, 10]: 3.52 ± 1.8 mL/min/kg
half-life [4, 10]: 62.1 ± 16.7 min
k el [4, 10]: 0.000197 s⁻¹
bioavailability ([4]; Sprague-Dawley, rat, plasma, CON rats): 53.7%
AUC(0-inf) [4, 11]: 7950 ng·h/mL
Cmax [4, 11]: 4750 ± 1180 ng/mL
CL renal [4, 11]: 1.28 ± 0.786 mL/min/kg
half-life [4, 11]: 84.3 ± 21.2 min
k el [4, 11]: 0.000145 s⁻¹
bioavailability ([4]; Sprague-Dawley, rat, plasma, PHL rats): 51.4%
Tmax ([4]; Sprague-Dawley, rat, plasma, oral 20 mg/kg, PHL rats (n = 7)): 30 min
AUC0–∞ higher in PHL than in CON rats ([4]; oral 20 mg/kg): 65.6%
CLR lower in PHL than in CON rats ([4]; oral 20 mg/kg): 63.6%
Cmax higher in PHL than in CON rats ([4]; oral 20 mg/kg): 60.5%
Ae0–24 h (drug excreted unchanged in urine for 24 h) [4, 12]: 4.90 ± 1.95 % of dose
ka (absorption rate constant) [4, 12]: 0.127 ± 0.0389 min⁻¹
Ae0–24 h (drug excreted unchanged in urine for 24 h) [4, 13]: 3.02 ± 1.87 % of dose
ka (absorption rate constant) [4, 13]: 0.156 ± 0.0885 min⁻¹
Time after dosing at which drug was detected in plasma ([4]; oral 20 mg/kg, all CON and PHL rats): 5 min
CLint lower in PHL than in CON rats [6]: 36.9%
Km, PHL versus CON rats [6]: did not differ significantly
CLint lower in PHL than in CON rats [8]: 51.3%
Km, PHL versus CON rats [8]: comparable
Kp at 30 min [9]: < 1
SMILES: C[C@@H]1CCN(C(=O)CC#N)C[C@@H]1N(C)c1ncnc2[nH]ccc12 [tofacitinib, Tofacitinib]
P-gp substrate status [5]: substrate of P-gp
Terminal half-life [7]: approximately 3.3 h
